In patent publication US9540371B2, “Substituted quinazolin-4(3H)-ones, pyrido[3,4-d]pyrimidin-4(3H)-ones, pyrido[3,2-d]pyrimidin-4(3H)-ones and pyrido[2,3-d]pyrimidin-4(3H)-ones as positive allosteric modulators of muscarinic acetycholine receptor M1” (Vanderbilt University, priority 2013, dated 2017):

molecular target: T1, mAChR M1 (UniProt P11229); assay: mAChR M1 cell-based functional assay (calcium mobilization, PAM mode); settings: calcium flux in CHO-K1 cells expressing mAChR M1; increase in the EC20 acetylcholine response; >10 μM estimated where no plateau but >20% increase in ACh response
T1 sequence (P11229 1-460): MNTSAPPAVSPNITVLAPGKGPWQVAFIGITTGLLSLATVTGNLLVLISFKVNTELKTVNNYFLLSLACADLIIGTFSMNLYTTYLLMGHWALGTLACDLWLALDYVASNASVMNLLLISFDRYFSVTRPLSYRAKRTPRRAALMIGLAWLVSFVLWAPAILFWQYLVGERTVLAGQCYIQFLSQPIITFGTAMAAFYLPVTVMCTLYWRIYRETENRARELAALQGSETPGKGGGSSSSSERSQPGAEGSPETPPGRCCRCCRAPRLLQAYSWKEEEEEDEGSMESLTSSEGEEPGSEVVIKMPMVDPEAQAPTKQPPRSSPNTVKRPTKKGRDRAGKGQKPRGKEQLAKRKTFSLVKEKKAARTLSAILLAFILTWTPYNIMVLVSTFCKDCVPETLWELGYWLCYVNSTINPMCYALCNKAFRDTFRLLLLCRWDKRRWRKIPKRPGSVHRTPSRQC
Source text: Chinese hamster ovary (CHO-K1) cells stably expressing rat (r)M1 were purchased from the American Type Culture Collection and cultured according to their indicated protocol. CHO cells stably expressing human (h)M2, hM3, and hM5 were described previously (Levey, A. I., et al., J Neurosci. 1991, 11, 3218-3226.); hM1 and hM4 cDNAs were purchased from Missouri S&T cDNA Resource; rM4 cDNA was provided by T. I. Bonner (National Institutes of Health, Bethesda, Md.). rM2 and rM3 were cloned from a rat brain cDNA library and sequence verified. hM1, rM2, rM3, hM4, and rM4 cDNAs were used to stably transfect CHO-K1 cells purchased from the American Type Culture Collection using Lipofectamine® 2000 (Thermo Fisher Scientific Inc.). To make stable rM2, hM2, hM4, and rM4 cell lines for use in calcium mobilization assays, these cells also were stably transfected with a chimeric G-protein (Gqi5) (provided by B. R. Conklin, University of California, San Francisco) using Lipofectamine® 2000. rM1, hM1, rM3, hM3, rM5, and hM5 cells were grown in Ham's F-12 medium containing 10% heat-inactivated fetal bovine serum (FBS), 20 mM HEPES, and 50 μg/mL G418 sulfate. rM2-Gqi5, hM2-Gqi5, and hM4-Gqi5 cells were grown in the same medium also containing 500 μg/mL hygromycin B. Stable rM4-Gqi5 cells were grown in DMEM containing 10% heat-inactivated FBS, 20 mM HEPES, 400 μg/mL G418 sulfate, and 500 μg/mL hygromycin B.
For high throughput measurement of agonist-evoked increases in intracellular calcium, CHO-K1 cells stably expressing muscarinic receptors were plated in growth medium lacking G418 and hygromycin B at 15,000 cells/20 μL/well in Greiner 384-well black-walled, tissue culture (TC)-treated, clear-bottom plates (VWR). Cells were incubated overnight at 37° C. and 5% CO2. The next day, cells were washed using an ELX 405 (BioTek) with four washes (80 μL) of assay buffer then aspirated to 20 μL. Next, 20 μL of 16 μM Fluo-4/acetoxymethyl ester (Invitrogen, Carlsbad, Calif.) prepared as a 2.3 mM stock in DMSO and mixed in a 1:1 ratio with 10% (w/v) Pluronic F-127 and diluted in assay buffer was added to the wells and the cell plates were incubated for 50 min at 37° C. and 5% CO2. Dye was removed by washing with the ELX 405 (four 80 μL washes of assay buffer) then aspirated to 20 μL. Compound master plates were formatted in an 11 point CRC format (1:3 dilutions) in 100% DMSO with a starting concentration of 10 mM using the BRAVO liquid handler (Agilent). Test compound CRCs were then transferred to daughter plates (240 nL) using the Echo acoustic plate reformatter (Labcyte, Sunnyvale, Calif.) and then diluted into assay buffer (40 μL) to a 2× stock using a Thermo Fisher Combi (Thermo Fisher Scientific, Waltham, Mass.).
Calcium flux was measured using the Functional Drug Screening System (FDSS) 6000 (Hamamatsu Corporation, Tokyo, Japan) as an increase in the fluorescent static ratio. Compounds were applied to cells (20 μL, 2X) using the automated system of the FDSS 6000 at 4 s into the 300 s protocol and the data were collected at 1 Hz. At 144 s into the 300 s protocol, 10 μL of an EC20 concentration of the muscarinic receptor agonist acetylcholine was added (5X), followed by the addition of […] concentration of acetylcholine at the 230 s time point (5X). Agonist activity was analyzed as a concentration—dependent increase in calcium mobilization upon compound addition. Positive allosteric modulator activity was analyzed as a concentration-dependent increase in the EC20 acetylcholine response. Antagonist activity was analyzed as a concentration-dependent decrease in the EC80 acetylcholine response. Concentration-response curves were generated using a four -parameter logistical equation in XLFit curve fitting software (IDBS, Bridgewater, N.J.) for Excel (Microsoft, Redmond, Wash.) or Prism (GraphPad Software, Inc., San Diego, Calif.).
The calcium mobilization assay was also used to determine “efficacy”. […]

Compound	EC50
O=c1c2ccccc2ncn1Cc1ccc(-n2cccn2)cc1 [Compound B2]	> 10 µM
O=c1c2cccnc2ncn1Cc1ccc(-n2cccn2)cc1 [Compound B5]	> 10 µM
Cn1cc(-c2ccc(Cn3cnc4cccnc4c3=O)cc2)cn1 [Compound B11]	> 10 µM
Cn1cc2c(-c3cc(F)c(Cn4cnc5cccnc5c4=O)c(F)c3)cccc2n1 [Compound B12]	3.6 µM

More lines, now with the values ahead:

EC50	Compound
> 10 µM	Cn1cc(-c2ccc(Cn3cnc4ccccc4c3=O)cc2)cn1 [Compound B3]
> 10 µM	Cn1cc(-c2ccc(Cn3cnc4ncccc4c3=O)cc2)cn1 [Compound B6]
0.6 µM	Cn1cc2c(-c3cc(F)c(Cn4cnc5cnccc5c4=O)c(F)c3)cccc2n1 [Compound B7, 3-(2,6-Difluoro-4-(2-Methyl-2H-Indazol-4-yl)Benzyl)Pyrido[3,4-D]Pyrimidin-4(3H)-one]
> 10 µM	O=c1c2ccncc2ncn1Cc1ccc(-n2cccn2)cc1 [Compound B8]
4.9 µM	Cn1cc(-c2ccc(Cn3cnc4cnccc4c3=O)cc2)cn1 [Compound B9]
> 10 µM	O=c1c2ncccc2ncn1Cc1ccc(-n2cccn2)cc1 [Compound B10]
